Laboratory results published in patent publication US4931444A, “5-lipoxygenase inhibiting 4-(4-phenyl-1-piperazinyl)phenols” (Janssen Pharmaceutica N.V., priority 1989, dated 1990).
Counter-ions that a name gives are not always drawn.

Columns and labels:
[1] = test system: Dextran-induced edema formation in the ears of mice; experiment: Inhibition of Dextran-induced edema formation in the ears of mice; format: in vivo, male Swiss mice; conditions: Column B, at 10 mg/kg body weight, 1 h before dextran; for inhibition of Dextran-induced blueing of the ears of mice, % inhibition: oral; for inhibition in vivo at 10 mg/kg: Mus musculus, po, read-out: inhibition of Dextran-induced blueing of the ears of mice, % inhibition
Excerpt: Inhibition of Dextran-induced edema formation in the ears of mice.
Intravenous injection of Dextran T500® (Pharmacia) and pontamine sky-blue dye into mice results in increased vascular permeability and edema formation, characterized by an intense blueing of the ears. Determination of the amount of extravasated dye is presumed to yield a quantitative measure of the 5-lipoxygenase inhibiting activity of the test compounds (Drug. Dev. Res. 8, 213-218, 1986). Unfasted male Swiss mice weighing 24-26 g were used in the experiments which were performed between 13.00 pm and 17.00 pm at an ambient temperature of 22±1° C. The mice were treated orally with a test compound of formula (I) dissolved in a volume of […] of either polyethyleneglycol (PEG 200) or hydroxypropyl cyclodextrine at doses varying between 1.25 and 40 mg per kg bodyweight. In control experiments the mice were administered an identical amount of solvent alone. One hour after treatment there was injected intravenously an isotonic saline solution containing 60 mg/ml Dextran T500® and 13 mg/ml pontamine sky-blue dye in a volume of 0.1 ml per 10 g bodyweight. One hour and forty-five minutes later the animals were sacrificed by ether and their ears were removed. Extraction and quantification of the extravasated dye were performed as described (Drug Dev. Res. 8, 213-218, 1986). The calculated percentage of inhibition of ear blueing upon administration of a compound of formula (I) at a dose of 10 mg/kg bodyweight is shown in the second column of table 12.

5-lipoxygenase = molecular target: T1, 5-lipoxygenase (Rattus norvegicus, UniProt P12527); experiment: Arachidonate 5-lipoxygenase inhibition in Rat Basophilic Leukemia Cells Supernatant; format: biochemical; set-up: dose or concentration left out as unconfirmed; conditions: Column A, 5-HPETE and LTB4 formation; for inhibition: read-out: 5-lipoxygenase inhibition in RBL cells supernatant, % inhibition
T1 construct: The supernatant, aliquoted and stored at -70° C., was used as the source of 5-lipoxygenase activity; endogenous in cells; host or cells: Rat basophilic leukemia (RBL) cells, 10,000×g supernatant of the sonicate (crude, not purified)
T1 sequence (P12527 1-673): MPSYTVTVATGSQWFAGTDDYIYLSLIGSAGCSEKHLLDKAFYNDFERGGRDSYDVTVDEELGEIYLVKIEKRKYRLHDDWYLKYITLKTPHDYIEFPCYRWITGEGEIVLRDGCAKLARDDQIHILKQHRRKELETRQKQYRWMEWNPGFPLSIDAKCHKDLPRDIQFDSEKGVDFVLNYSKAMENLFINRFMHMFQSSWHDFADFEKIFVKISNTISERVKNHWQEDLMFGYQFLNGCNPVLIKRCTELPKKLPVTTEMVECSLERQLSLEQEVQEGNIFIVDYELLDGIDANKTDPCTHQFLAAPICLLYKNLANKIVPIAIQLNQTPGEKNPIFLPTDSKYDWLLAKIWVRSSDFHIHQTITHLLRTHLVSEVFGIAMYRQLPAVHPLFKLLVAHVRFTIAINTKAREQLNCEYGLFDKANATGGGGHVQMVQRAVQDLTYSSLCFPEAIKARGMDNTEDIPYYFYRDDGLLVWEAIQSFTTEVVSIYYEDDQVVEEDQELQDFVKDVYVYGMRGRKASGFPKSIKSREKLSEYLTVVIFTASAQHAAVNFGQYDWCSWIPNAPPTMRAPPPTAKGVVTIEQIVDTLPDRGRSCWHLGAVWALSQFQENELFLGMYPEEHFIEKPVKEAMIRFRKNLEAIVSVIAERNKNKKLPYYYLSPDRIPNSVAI

Row | Structure (SMILES) | inhibition (5-lipoxygenase) | inhibition in vivo at 10 mg/kg [1] | other results
1 | CC(C(O)c1ccc(Br)cc1)n1ncn(-c2ccc(N3CCN(c4ccc(O)cc4)CC3)cc2)c1=O (stereo not shown) [Compound 7.68] | – | – | inhibition of Dextran-induced blueing of the ears of mice, % inhibition ([1]; 10 mg/kg): 81%
2 | CCC(C)n1nc(C)n(-c2ccc(N3CCN(c4ccc(O)cc4)CC3)cc2)c1=O (stereo not shown) [Compound 7.33, 2,4-dihydro-4-[4-[4-(4-hydroxyphenyl)-1-piperazinyl]phenyl]-5-methyl-2-(1-methylpropyl)-3H-1,2,4-triazol-3-one] | 80% | 87% | –
3 | O=C1CCCCC1n1ncn(-c2ccc(N3CCN(c4ccc(O)cc4)CC3)cc2)c1=O (stereo not shown) [Compound 7.18] | 67% | 87% | –
4 | Cc1nn(CC(C)C)c(=O)n1-c1ccc(N2CCN(c3ccc(O)cc3)CC2)cc1 [Compound 7.34] | 87% | 66% | –
5 | CC(C)N1C(=O)N(c2ccc(N3CCN(c4ccc(O)cc4)CC3)cc2)C(C)(C)C1=O [Compound 6.09] | 84% | – | –
6 | CC(C(O)c1ccc(Cl)cc1Cl)n1ncn(-c2ccc(N3CCN(c4ccc(O)cc4)CC3)cc2)c1=O (stereo not shown) [Compound 7.22] | 100% | 94% | –
7 | O=[N+]([O-])c1cc(F)ccc1N1CCN(c2ccc(O)cc2)CC1 [Compound 1.16, 4-[4-(4-fluoro-2-nitrophenyl)-1-piperazinyl]phenol monohydrochloride] | 94% | – | –
8 | CCC(C)n1ncn(-c2ccc(N3CCN(c4ccc(O)cc4)CC3)cc2)c1=O (stereo not shown) [Compound 7.06] | 97% | – | –
9 | CCC(C(O)c1ccccc1)n1ncn(-c2ccc(N3CCN(c4ccc(O)cc4)CC3)cc2)c1=O (stereo not shown) [Compound 7.69] | – | 85% | –
10 | CCCn1c(=O)n(CCC)c(=O)n(-c2ccc(N3CCN(c4ccc(O)cc4)CC3)cc2)c1=O [Compound 9.03] | 58% | 94% | –
11 | CC(C(=O)c1ccc(F)cc1)n1ncn(-c2ccc(N3CCN(c4ccc(O)cc4)CC3)cc2)c1=O (stereo not shown) [Compound 7.14] | 66% | 70% | –
12 | CCC(C)n1ncn(-c2ccc(N3CCN(c4ccc(O)cc4)CC3)c(Br)c2)c1=O (stereo not shown) [Compound 7.21] | 97% | – | –
13 | Cn1c(=O)n(C)c(=O)n(-c2ccc(N3CCN(c4ccc(O)cc4)CC3)cc2)c1=O [Compound 9.05] | – | 83% | –
14 | CC(C(=O)c1cccc(Cl)c1)n1ncn(-c2ccc(N3CCN(c4ccc(O)cc4)CC3)cc2)c1=O (stereo not shown) [Compound 7.37] | 100% | 73% | –
15 | Cc1nn(C(C)C(O)c2ccc(Br)cc2)c(=O)n1-c1ccc(N2CCN(c3ccc(O)cc3)CC2)cc1 (stereo not shown) [Compound 7.70, 2-[2-(4-bromophenyl)-2-hydroxy-1-methylethyl]-2,4-dihydro-4-[4-[4-(4-hydroxyphenyl)-1-piperazinyl]phenyl]-5-methyl-3H-1,2,4-triazol-3-one] | – | 85% | –
16 | CCCn1c(=O)n(-c2ccc(N3CCN(c4ccc(O)cc4)CC3)cc2)c(=O)n(C(C)C(=O)c2ccc(Br)cc2)c1=O (stereo not shown) [Compound 9.07] | – | 83% | –
17 | O=c1n(-c2ccc(N3CCN(c4ccc(O)cc4)CC3)cc2)cnn1CC(F)(F)F [Compound 7.11] | 81% | 81% | –
18 | CC(C(O)c1ccc(Cl)cc1Cl)n1ncn(-c2ccc(N3CCN(c4ccc(O)cc4)CC3)cc2)c1=O (stereo not shown) [Compound 7.23] | – | – | 5-lipoxygenase inhibition in RBL cells supernatant, % inhibition (5-lipoxygenase): 91%; inhibition of Dextran-induced blueing of the ears of mice, % inhibition [1]: 94%
19 | CCC(C(=O)c1ccc(Br)cc1)n1ncn(-c2ccc(N3CCN(c4ccc(O)cc4)CC3)cc2)c1=O (stereo not shown) [Compound 7.36] | 100% | 93% | –

Row | Structure (SMILES) | inhibition (5-lipoxygenase) | inhibition in vivo at 10 mg/kg [1] | other results
20 | CCCCN1C(=O)N(c2ccc(N3CCN(c4ccc(O)cc4)CC3)cc2)CC1(C)C [Compound 4.13] | 95% | – | –
21 | CCCCN1C(=O)N(c2ccc(N3CCN(c4ccc(O)cc4)CC3)cc2)C(C)(C)C1=O [Compound 6.10] | 90% | 93% | –
22 | CCCCn1c(=O)cnn(-c2ccc(N3CCN(c4ccc(O)cc4)CC3)cc2)c1=O [Compound 10.05, 4-butyl-2-[4-[4-(4-hydroxyphenyl)-1-piperazinyl]phenyl]-1,2,4-triazine-3,5(2H,4H)-dione] | 80% | – | –
23 | CCCCN1C(=O)N(c2ccc(N3CCN(c4ccc(O)cc4)CC3)cc2)C(=O)C1C (stereo not shown) [Compound 5.03] | 79% | 72% | –
24 | Cc1nn(C(C)C(=O)c2ccc(Br)cc2)c(=O)n1-c1ccc(N2CCN(c3ccc(O)cc3)CC2)cc1 (stereo not shown) [Compound 7.57, 2-[2-(4-bromophenyl)-1-methyl-2-oxoethyl]-2,4-dihydro-4-[4-[4-(4-hydroxyphenyl)-1-piperazinyl]phenyl]-5-methyl-3H-1,2,4-triazol-3-one] | 90% | 82% | –
25 | CCC(C)n1nc(C)n(-c2ccc(N3CCN(c4ccc(O)c(C)c4)CC3)cc2)c1=O (stereo not shown) [Compound 7.38] | 100% | 88% | –
26 | CC(C(=O)c1ccc(Cl)cc1)n1ncn(-c2ccc(N3CCN(c4ccc(O)cc4)CC3)cc2)c1=O (stereo not shown) [Compound 7.15] | 51% | 97% | –
27 | CCN1C(=S)N(c2ccc(N3CCN(c4ccc(O)cc4)CC3)cc2)C(=O)C1(C)C [Compound 5.13] | 71% | 15% | –
28 | CC(=O)C(C)N1C(=O)N(c2ccc(N3CCN(c4ccc(O)cc4)CC3)cc2)C(=O)C1(C)C (stereo not shown) [Compound 5.08] | 45% | 76% | –
29 | CCN1CCN(c2ccc(N3CCN(c4ccc(O)cc4)CC3)cc2)C1=O [Compound 4.02] | 84% | – | –
30 | CCCn1cnn(-c2ccc(N3CCN(c4ccc(O)cc4)CC3)cc2)c1=O [Compound 8.05] | 90% | – | –
31 | CC(C(=O)c1ccc(Br)cc1)n1ncn(-c2ccc(N3CCN(c4ccc(O)cc4)CC3)cc2)c1=O (stereo not shown) [Compound 7.16] | 94% | 91% | –
32 | CCCCN1CCCSC1=Nc1ccc(N2CCN(c3ccc(O)cc3)CC2)cc1 [Compound 2.01] | 90% | 71% | –
33 | CCCN1C(=O)N(c2ccc(N3CCN(c4ccc(O)cc4)CC3)cc2)C(C)(C)C1=O [Compound 6.08] | 75% | 89% | –
34 | CC12CCCN1C(=O)N(c1ccc(N3CCN(c4ccc(O)cc4)CC3)cc1)C2=O (stereo not shown) [Compound 5.10] | 69% | 75% | –
35 | CCC(C)n1nc(C)n(-c2ccc(N3CCN(c4cc(C)c(O)c(C)c4)CC3)cc2)c1=O (stereo not shown) [Compound 7.50, 2,4-dihydro-4-[4-[4-(4-hydroxy-3,5-dimethylphenyl)-1-piperazinyl]phenyl]-5-methyl-2-(1-methylpropyl)-3H-1,2,4-triazol-3-one] | 52% | 88% | –
36 | Cc1cc(N2CCN(c3ccc(-n4c(C)nn(C(C)C(=O)c5ccc(Br)cc5)c4=O)cc3)CC2)cc(C)c1O (stereo not shown) [Compound 7.51, 2-[2-(4-bromophenyl)-1-methyl-2-oxoethyl]-2,4-dihydro-4-[4-[4-(4-hydroxy-3,5-dimethylphenyl)-1-piperazinyl]phenyl]-5-methyl-3H-1,2,4-triazol-3-one] | 93% | 83% | –
37 | CCC(C(=O)c1ccc(Cl)cc1)n1ncn(-c2ccc(N3CCN(c4ccc(O)cc4)CC3)cc2)c1=O (stereo not shown) [Compound 7.41] | – | 82% | –
38 | CCN(C1=NC(C(C)C)CS1)c1ccc(N2CCN(c3ccc(O)cc3)CC2)cc1 (stereo not shown) [Compound 3.14] | – | 74% | –
